Experimental findings from the NIST ThermoML archive (doi:10.1016/j.fluid.2015.09.038) are described below.

Numbers after ± are expanded uncertainties.

For series [1] the following is noted: Crystal; DTA.
Series [2] in a line: Molar enthalpy of transition or fusion. The note with it: Crystal; DSC.

On to `CCCCCCCCCCCCC1CCCCC1` [dodecylcyclohexane], for which the Normal melting temperature in series [1] turned out to be 13.63 ± 2 °C. The “Molar enthalpy of transition or fusion” value in series [2] was determined as 10.8 ± 2.17 kcal/mol.
For `CCCCCCCCCCCC(=O)OCC` [ethyl dodecanoate], the Normal melting temperature in series [1] was -0.92 ± 2 °C. For the same compound, the “Molar enthalpy of transition or fusion” value in series [2] came to 9.15 ± 1.84 kcal/mol.
Regarding `CCCCCCCCCCCCCCCC(=O)OCC` [ethyl hexadecanoate], the Normal melting temperature in series [1] was found to be 24.78 ± 2 °C. The “Molar enthalpy of transition or fusion” value in series [2] turned out to be 12.7 ± 4.78 kcal/mol.
